Measured values reported in PubChem BioAssay (NCI).
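In this assay, cells in 96-well plates receive the compound at five concentrations for 48 hours. Endpoints are linearly interpolated between the surrounding concentrations. Definition used: TGI = concentration required for complete inhibition of growth.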

Tests used:
Assay in all cases: growth of human tumour cells (NCI), 48 h
786-0 renal = system: 786-0 renal
A498 renal = system: A498 renal
A549 NSCLC = system: A549 NSCLC
ACHN renal = system: ACHN renal
BT-549 breast = system: BT-549 breast
CAKI-1 renal = system: CAKI-1 renal
CCRF-CEM leukemia = system: CCRF-CEM leukemia
COLO 205 colon = system: COLO 205 colon
EKVX NSCLC = system: EKVX NSCLC
HCC-2998 colon = system: HCC-2998 colon
HCT-116 colon = system: HCT-116 colon
HCT-15 colon = system: HCT-15 colon
HL-60(TB) leukemia = system: HL-60(TB) leukemia
HOP-62 NSCLC = system: HOP-62 NSCLC
HS 578T breast = system: HS 578T breast
HT29 colon = system: HT29 colon
IGROV1 ovarian = system: IGROV1 ovarian
K-562 leukemia = system: K-562 leukemia
KM12 colon = system: KM12 colon
LOX IMVI melanoma = system: LOX IMVI melanoma
M14 melanoma = system: M14 melanoma
MALME-3M melanoma = system: MALME-3M melanoma
MCF7 breast = system: MCF7 breast
MDA-MB-231 breast = system: MDA-MB-231 breast
MDA-MB-435 = system: MDA-MB-435
MDA-N = system: MDA-N
MOLT-4 leukemia = system: MOLT-4 leukemia
NCI-H226 lung = system: NCI-H226 lung
NCI-H23 lung = system: NCI-H23 lung
NCI-H460 lung = system: NCI-H460 lung
NCI-H522 lung = system: NCI-H522 lung
NCI/ADR-RES ovarian = system: NCI/ADR-RES ovarian
OVCAR-4 ovarian = system: OVCAR-4 ovarian
OVCAR-5 ovarian = system: OVCAR-5 ovarian
OVCAR-8 ovarian = system: OVCAR-8 ovarian
PC-3 prostate = system: PC-3 prostate
RPMI-8226 leukemia = system: RPMI-8226 leukemia
RXF 393 renal = system: RXF 393 renal
SF-268 CNS = system: SF-268 CNS
SF-295 CNS = system: SF-295 CNS
SF-539 CNS = system: SF-539 CNS
SK-MEL-2 melanoma = system: SK-MEL-2 melanoma
SK-MEL-28 melanoma = system: SK-MEL-28 melanoma
SK-MEL-5 melanoma = system: SK-MEL-5 melanoma
SK-OV-3 ovarian = system: SK-OV-3 ovarian
SN12C renal = system: SN12C renal
SNB-19 CNS = system: SNB-19 CNS
SNB-75 CNS = system: SNB-75 CNS
SR leukemia = system: SR leukemia
SW-620 colon = system: SW-620 colon
T-47D breast = system: T-47D breast
TK-10 renal = system: TK-10 renal
U251 CNS = system: U251 CNS
UACC-257 melanoma = system: UACC-257 melanoma
UACC-62 melanoma = system: UACC-62 melanoma
UO-31 renal = system: UO-31 renal
DU-145 prostate = system: DU-145 prostate
OVCAR-3 ovarian = system: OVCAR-3 ovarian

## CN(C)CCn1nc2c3c(c(C(=O)NCCCN(C)CCCNC(=O)c4ccc5c6c(nn5CCN(C)C)-c5ccccc5Nc46)ccc31)Nc1ccccc1-2
786-0 renal
  TGI: 1280 nM
A498 renal
  TGI: 623 nM
A549 NSCLC
  TGI: 332 nM
ACHN renal
  TGI: 6260 nM
BT-549 breast
  TGI: 1650 nM
CAKI-1 renal
  TGI: 3300 nM
CCRF-CEM leukemia
  TGI: 2630 nM
COLO 205 colon
  TGI: 227 nM
EKVX NSCLC
  TGI: 505 nM
HCC-2998 colon
  TGI: 245 nM
HCT-116 colon
  TGI: 525 nM
HCT-15 colon
  TGI: 16600 nM
HL-60(TB) leukemia
  TGI: 944 nM
HOP-62 NSCLC
  TGI: 574 nM
HS 578T breast
  TGI: 1860 nM
HT29 colon
  TGI: 561 nM
IGROV1 ovarian
  TGI: 15600 nM
K-562 leukemia
  TGI: 1890 nM
KM12 colon
  TGI: 1330 nM
LOX IMVI melanoma
  TGI: 1280 nM
M14 melanoma
  TGI: 1580 nM
MALME-3M melanoma
  TGI: 280 nM
MCF7 breast
  TGI: 582 nM
MDA-MB-231 breast
  TGI: 518 nM
MDA-MB-435
  TGI: 415 nM
MDA-N
  TGI: 318 nM
MOLT-4 leukemia
  TGI: 1580 nM
NCI-H226 lung
  TGI: 217 nM
NCI-H23 lung
  TGI: 617 nM
NCI-H460 lung
  TGI: 432 nM
NCI-H522 lung
  TGI: 117 nM
NCI/ADR-RES ovarian
  TGI: > 71200 nM
OVCAR-4 ovarian
  TGI: 658 nM
OVCAR-5 ovarian
  TGI: 751 nM
OVCAR-8 ovarian
  TGI: 2970 nM
PC-3 prostate
  TGI: 834 nM
RPMI-8226 leukemia
  TGI: 1370 nM
RXF 393 renal
  TGI: 1450 nM
SF-268 CNS
  TGI: 549 nM
SF-295 CNS
  TGI: 2080 nM
SF-539 CNS
  TGI: 2190 nM
SK-MEL-2 melanoma
  TGI: 243 nM
SK-MEL-28 melanoma
  TGI: 1150 nM
SK-MEL-5 melanoma
  TGI: 1460 nM
SK-OV-3 ovarian
  TGI: 407 nM
SN12C renal
  TGI: 708 nM
SNB-19 CNS
  TGI: 748 nM
SNB-75 CNS
  TGI: 272 nM
SR leukemia
  TGI: 1200 nM
SW-620 colon
  TGI: 3490 nM
T-47D breast
  TGI: 10500 nM
TK-10 renal
  TGI: 3320 nM
U251 CNS
  TGI: 452 nM
UACC-257 melanoma
  TGI: 1090 nM
UACC-62 melanoma
  TGI: 424 nM
UO-31 renal
  TGI: 3220 nM

## O=C1C=CC(=O)c2c(O)c(NCCCN3CCOCC3)c(Cl)c(O)c21
786-0 renal
  TGI: 5230 nM
A498 renal
  TGI: > 10000 nM
A549 NSCLC
  TGI: > 10000 nM
ACHN renal
  TGI: > 10000 nM
BT-549 breast
  TGI: 3280 nM
DU-145 prostate
  TGI: 2950 nM
HCC-2998 colon
  TGI: 3710 nM
HCT-116 colon
  TGI: 2930 nM
HCT-15 colon
  TGI: 3120 nM
HOP-62 NSCLC
  TGI: 3860 nM
HS 578T breast
  TGI: 3140 nM
HT29 colon
  TGI: 7340 nM
IGROV1 ovarian
  TGI: 3580 nM
K-562 leukemia
  TGI: 8680 nM
KM12 colon
  TGI: 3800 nM
LOX IMVI melanoma
  TGI: 4260 nM
M14 melanoma
  TGI: 4180 nM
MALME-3M melanoma
  TGI: 3560 nM
MCF7 breast
  TGI: 3310 nM
MDA-MB-231 breast
  TGI: 7960 nM
MDA-MB-435
  TGI: 3620 nM
MDA-N
  TGI: 3090 nM
NCI-H226 lung
  TGI: > 10000 nM
NCI-H23 lung
  TGI: 3430 nM
NCI-H460 lung
  TGI: > 10000 nM
OVCAR-3 ovarian
  TGI: 2990 nM
OVCAR-5 ovarian
  TGI: 3100 nM
OVCAR-8 ovarian
  TGI: > 10000 nM
PC-3 prostate
  TGI: 9910 nM
RPMI-8226 leukemia
  TGI: 1540 nM
RXF 393 renal
  TGI: 3130 nM
SF-268 CNS
  TGI: 7070 nM
SF-295 CNS
  TGI: 5490 nM
SF-539 CNS
  TGI: 3210 nM
SK-MEL-2 melanoma
  TGI: 526 nM
SK-MEL-28 melanoma
  TGI: 3170 nM
SK-MEL-5 melanoma
  TGI: 2400 nM
SK-OV-3 ovarian
  TGI: > 10000 nM
SN12C renal
  TGI: 3680 nM
SNB-19 CNS
  TGI: 3250 nM
SNB-75 CNS
  TGI: 4150 nM
SR leukemia
  TGI: 4640 nM
SW-620 colon
  TGI: 4220 nM
T-47D breast
  TGI: > 10000 nM
TK-10 renal
  TGI: > 10000 nM
U251 CNS
  TGI: 5550 nM
UACC-257 melanoma
  TGI: 4940 nM
UACC-62 melanoma
  TGI: 4810 nM
UO-31 renal
  TGI: 3640 nM
